The target of this test is T1, recombinant human glucagon receptor (Homo sapiens, UniProt P47871).
T1 construct: expressed in transfected cells; host or cells: CHO cells
Briefly: Inhibition of glucagon-stimulated intracellular cAMP assay. The test is classed as cell-based. To be noted: CHO cells expressing recombinant human glucagon receptor, stimulated with 300 pM glucagon, LANCE cAMP kit. The protocol: Inhibition of Glucagon-Stimulated Intracellular cAMP Assay
Chinese hamster ovary (CHO) cells expressing the recombinant human glucagon receptor were harvested with the aid of non-enzymatic cell dissociation solution (GIBCO 13151-014). The cells were then pelleted and suspended in the stimulation buffer (1×HBSS, 5 mM Hepes, 0.1% BSA, pH7.4 in presence of complete protease inhibitor and phosphodiesterase inhibitor). The adenylate cyclase assay was conducted following the LANCE cAMP Kit (Perkin Elmer, AD0262) instructions. Briefly, cells were preincubated with anti-cAMP antibody in the stimulation buffer with a final concentration of 3% DMSO for 30 minutes and then stimulated with 300 pM glucagon for 45 minutes. The reaction was stopped by incubating with the detection buffer containing Europium chelate of the Eu-SA/Biotin-cAMP tracer for 20 hours. The fluorescence intensity emitted from the assay was measured at 665 nm using PheraStar instruments. […] Standard cAMP concentrations were conducted concurrently for conversion of fluorescence signal to cAMP level. Data was analyzed using GraphPad Prism. IC50 values were calculated using non-linear regression analysis assuming single site competition. […] Some of the compounds of the invention shown in the examples measured less than about 5 μM in this assay; other examples measured less than about 500 nM; others less than about 100 nM. […]
A general note: cAMP levels reflect the balance of adenylyl cyclase and phosphodiesterase activity.

Structures are written as SMILES.

By IC50 is commonly meant the concentration that inhibits the measured activity by half.

T1 sequence (P47871 26-477): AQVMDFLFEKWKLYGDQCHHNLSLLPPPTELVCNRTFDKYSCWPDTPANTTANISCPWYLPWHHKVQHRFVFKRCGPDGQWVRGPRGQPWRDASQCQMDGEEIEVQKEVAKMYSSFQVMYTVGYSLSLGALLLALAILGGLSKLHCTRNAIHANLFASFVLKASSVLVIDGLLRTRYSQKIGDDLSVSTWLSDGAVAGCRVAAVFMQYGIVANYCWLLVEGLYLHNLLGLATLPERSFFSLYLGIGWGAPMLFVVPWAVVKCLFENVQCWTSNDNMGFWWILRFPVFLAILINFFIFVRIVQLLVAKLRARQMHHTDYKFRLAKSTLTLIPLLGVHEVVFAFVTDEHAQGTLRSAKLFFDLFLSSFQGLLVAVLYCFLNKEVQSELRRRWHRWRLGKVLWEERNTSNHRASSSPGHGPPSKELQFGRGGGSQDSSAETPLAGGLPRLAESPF

For `CC(C)(C)CC[C@H](c1ccc(C(=O)NCCC(=O)O)cc1)N1C(=O)C(c2cccc(F)c2)=NC12CCC([Si](C)(C)C)CC2` (some centres unmarked) [Example 5.26], the IC50 worked out at 0.061 µM.

Turning to `CC(C)(C)CCOc1cccc(C2=NC3(CCC(C(C)(C)C)CC3)N([C@H](CCC(C)(C)C)c3ccc(C(=O)NCc4nn[nH]n4)cc3)C2=O)c1` (some centres unmarked) [Example 5.69], the IC50 was 0.022 µM.

The record behind these values is patent US20130012434A1, “NOVEL SPIRO IMIDAZOLONES AS GLUCAGON RECEPTOR ANTAGONISTS, COMPOSITIONS, AND METHODS FOR THEIR USE” (priority 2010, published 2013).
